For orientation: pIC50 means −log10 of the IC50, conventionally taken in molar units. Usually IC50 stands for the concentration needed to halve the response being measured.

The values below come from PMC4535766, “Antiprotozoal Activity Profiling of Approved Drugs: A Starting Point toward Drug Repositioning” (PLoS ONE, 2015).

pIC50: −log10 of the molar value. Counter-ions that a name gives are not always drawn. Like-named read-outs stand apart in the source and are kept apart here.

For data set [1], the system named is T. b. rhodesiense strain STIB 900, trypomastigotes. Put plainly: In vitro activity against T. b. rhodesiense, serial drug dilution assay. The note with it: for pIC50: Trypanosoma brucei. The procedure:
(§1) Drug stock solutions (10mg/ml) were in DMSO (100%). […] Selectivity index (SI) was calculated as IC50 L6 cells/IC50 parasite.

Data set [2] in a line: Cytotoxicity on macrophages infected with L. donovani. The note with it: mouse. The format is cell-based, mouse.
Method: After 24 h 1.2 x 10^5 amastigote L. donovani in 100 μl were added. The amastigotes were taken from an axenic culture grown at pH 5.4. Four hours later, the medium containing free amastigote forms was removed and replaced by fresh medium. The next day the medium was replaced by medium with or without a serial drug dilution of seven 3-fold dilution steps covering a range from 30 to 0.04 μg/ml. Parasite growth in the presence of the drug was compared to control wells. After 96 h of incubation, the medium was removed and the slides fixed with methanol for 10 min followed by staining with a 10% Giemsa solution. Infected and non-infected macrophages were counted for the control cultures and those exposed to the serial drug dilutions. The infection rates were determined. The results were expressed as a percentage reduction in parasite burden compared to control wells, and the IC50 was calculated by linear regression analysis.
The subject of data set [3] is axenic amastigotes of L. donovani, strain MHOM-ET-67/L82. In words: In vitro activity against L. donovani axenic amastigotes, serial drug dilution assay. The note with it: axenic amastigotes, strain MHOM-ET-67/L82, means of two independent assays, read-out: IC50 L. don. axen. In kind it is cell-based, Leishmania donovani. On the procedure: as §1
The nature of another data set: in vitro. The note with it: rat. On the procedure:
as §1

Data set [4] concerns T. cruzi, strain Tulahuen C4, intracellular amastigotes. Put plainly: microbe, parasite or virus in culture. The note with it: for pIC50: Trypanosoma cruzi, TULAHUEN; for selectivity ratio: rat, Selectivity index: IC50 Cytotoxicity L6/ IC50 T. cruzi. On the procedure:
as §1

Data set [5] has as its system L. donovani strain MHOM-ET-67/L82 amastigotes. Put plainly: Activity against Leishmania donovani intracellular amastigotes in mouse peritoneal macrophages. The note with it: mouse, Selectivity index: IC50 Cytotoxicity macrophages/ IC50 L. donovani. In a few lines:
(§2)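 Axenic amastigotes grown at pH 5.4 infected mouse peritoneal macrophages for 4 h before free parasites were washed off. Next day, seven 3-fold drug dilutions (30–0.04 μg/ml) were added for 96 h. Giemsa-stained infected macrophages were counted, burden reduction was taken vs untreated controls, and IC50 came from linear regression.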

Data set [6] relates to intracellular amastigotes of L. donovani strain MHOM-ET-67/L82. The description is as above. The note with it: Leishmania donovani, Peritoneal macrophage, in Mus musculus, 96 h, read-out: IC50 L. don. intracell. A digest of the protocol: as §2
Another data set concerns P. falciparum strain K1. Put plainly: In vitro activity against P. falciparum, serial drug dilution assay. The note with it: for pIC50: Plasmodium falciparum; for selectivity ratio: rat, Selectivity index: IC50 Cytotoxicity L6/ IC50 P. falciparum. The procedure: as §1
The nature of data set [7]: In vitro cytotoxicity with mouse peritoneal macrophages (Alamar Blue). The note with it: mouse. In kind it is cell-based. On the procedure: After 96 h of incubation, the plates were inspected under an inverted microscope to assure sterility. […] The IC50 values were calculated by linear regression from the sigmoidal dose inhibition curves using SoftmaxPro software (Molecular Devices Cooperation, Sunnyvale, CA, USA).
In general terms: The colour change of resazurin is a common sign of viable cells or microbes.

[8] abbreviates: macrophages infected with L. donovani, read-out: IC50 Cytotox. mac.inf.
Where [9] appears, read: infected macrophages, read-out: Cytotox. mac.inf. IC50.
Where [10] appears, read: mouse peritoneal macrophages versus L. donovani amastigotes, axenic or intracellular IC50 not specified.

Consider `Cc1c(C)c2c(c(C)c1O)CCC(C)(COc1ccc(CC3SC(=O)NC3=O)cc1)O2` (stereo not drawn) [Troglitazone], for which the pIC50 was 4.23 in data set [1] (read-out: T. b. rhod. IC50); 5.37 in data set [3] (Leishmania donovani); 4.09 in the data set “in vitro” (Cytotox. L6 IC50); 4.49 in data set [4] (read-out: T. cruzi IC50); under 4.17 in [6]; 5.14 in the data set with P. falciparum strain K1 (K1, read-out: P. falc. IC50). The IC50 at 96 h in [2] (setting [8]) was over 68 µM; in data set [2] (setting [9]) it was over 67.9 µM. Moreover, in data set [5] (setting [10]), the selectivity ratio at 96 h was over 16.

For `CO[C@H]1/C=C/O[C@@]2(C)Oc3c(C)c(O)c4c(O)c(cc(O)c4c3C2=O)NC(=O)/C(C)=C\C=C\[C@H](C)[C@H](O)[C@@H](C)[C@@H](O)[C@@H](C)[C@H](OC(C)=O)[C@@H]1C` [Rifamycin SV (Sodium salt), Rifamycin SV], the pIC50 in data set [1] (read-out: IC50 T. b. rhod.) is 6.00; in data set [3] (Leishmania donovani) it was over 5.52; in data set [3], 5.82; in the data set “in vitro” (IC50 Cytotox. L6) it was 4.80; in data set [4] (read-out: T. cruzi IC50), 4.30; in data set [6], under 4.86. Besides, the pIC50 in the data set on P. falciparum strain K1 (K1, read-out: IC50 P. falc. K1) was 6.26. Further, the selectivity ratio in data set [1] (rat, L6 cells versus T. b. rhodesiense STIB 900 trypomastigotes) amounted to 16; with P. falciparum strain K1 it was 29. Further, the IC50 at 96 h in [2] (setting [8]) came out at 41.6 µM. In addition, in data set [5] (setting [10]), the selectivity ratio at 96 h was 28.

`Clc1ccc(COC(Cn2ccnc2)c2ccc(Cl)cc2Cl)c(Cl)c1` (stereo not drawn) [Miconazole (Nitrate salt), Miconazole] had a pIC50 in “in vitro” (IC50 Cytotox. L6) of 4.81. Also, in the data set on P. falciparum strain K1 (in vitro), the “Activity against P. falciparum (in words)” value is “active”. In addition, the IC50 at 96 h in [7] was 23.9 µM.

For `O=C(N/N=C/c1ccc([N+](=O)[O-])o1)c1ccc(O)cc1` [Nifuroxazide], the pIC50 in data set [1] (read-out: IC50 T. b. rhod.) is 7.52; in [3] (Leishmania donovani), over 5.52; in data set [3] it was 5.55; in “in vitro” (IC50 Cytotox. L6), 4.91; in [4] (read-out: IC50 T. cruzi), 6.64; in data set [6], under 4.96. Further, the pIC50 with P. falciparum strain K1 (K1, read-out: IC50 P. falc. K1) is 5.11. Besides, the selectivity ratio in [1] (rat) was 410; in [4], 54. For the same compound, the IC50 at 96 h in data set [2] (setting [8]) is 36.2 µM. Moreover, the selectivity ratio at 96 h in [5] was 13.

As to `C[C@H]1[C@H](OC(=O)CCC(=O)O)O[C@@H]2O[C@@]3(C)CC[C@H]4[C@H](C)CC[C@@H]1[C@@]24OO3` [Artesunate], the pIC50 was 4.78 in data set [1] (read-out: IC50 T. b. rhod.); over 5.52 in data set [3] (listed as artesunate); 6.46 in [3]; 6.11 in “in vitro” (IC50 Cytotox. L6); 5.05 in [4] (read-out: IC50 T. cruzi); under 5.11 in data set [6]. Besides, the negative-log IC50 (pIC50) in the data set with P. falciparum strain K1 (K1, read-out: IC50 P. falc. K1) is 8.52. The IC50 at 96 h in data set [2] (setting [8]) is over 7.8 µM. Also, the selectivity ratio at 96 h in [5] was over 22. Moreover, the selectivity ratio in the data set with P. falciparum strain K1 amounted to 260.

For the compound `Cc1cccc(N(C)C(=S)Oc2ccc3ccccc3c2)c1` [Tolnaftate], the pIC50 is 4.16 in data set [1] (read-out: T. b. rhod. IC50); 5.36 in [3] (Leishmania donovani); 4.07 in “in vitro” (Cytotox. L6 IC50); 4.70 in data set [4] (read-out: T. cruzi IC50); 4.30 in data set [6]; 4.72 with P. falciparum strain K1 (K1, read-out: P. falc. IC50). Besides, the IC50 at 96 h in [2] (setting [8]) and in [2] (setting [9]) was over 97.6 µM throughout. The selectivity ratio at 96 h in data set [5] was over 23.

As to `O=C1CN(/N=C/c2ccc([N+](=O)[O-])o2)C(=O)N1` [Nitrofurantoine], the pIC50 in [1] (read-out: IC50 T. b. rhod.) was 6.30; in data set [3] (Leishmania donovani) it was over 5.52; in [3], 5.67; in the data set “in vitro” (IC50 Cytotox. L6), 4.04; in data set [4] (read-out: IC50 T. cruzi), 5.36; in data set [6], under 4.38. Moreover, the “Selectivity index: IC50 Cytotoxicity L6/ IC50 T. b. rhodesiense” value in [1] (rat) amounted to 181. Further, the selectivity ratio was 180 in data set [1] (rat, Selectivity index: IC50 Cytotoxicity L6/ IC50 T. b. rhodesiense) and 21 in data set [4]. Besides, in [2] (setting [8]), the IC50 at 96 h stood at 125 µM. The selectivity ratio at 96 h in data set [5] turned out to be 59.

Consider `CO[C@H]1/C=C/O[C@@]2(C)Oc3c(C)c(O)c4c(O)c(c(/C=N/N5CCN(C)CC5)c(O)c4c3C2=O)NC(=O)/C(C)=C\C=C\[C@H](C)[C@H](O)[C@@H](C)[C@@H](O)[C@@H](C)[C@H](OC(C)=O)[C@@H]1C` [Rifampicin], for which the pIC50 in data set [1] (read-out: T. b. rhod. IC50) is 4.78; in data set [3] (Leishmania donovani) it was over 5.52; in [3], 5.82; in the data set “in vitro” (IC50 Cytotox. L6) it was 4.12; in data set [4] (read-out: T. cruzi IC50) it was under 3.96; in [6] it was under 4.44. In addition, the pIC50 in the data set on P. falciparum strain K1 (K1, read-out: IC50 P. falc. K1) is 7.00. Further, in data set [1] (in vitro), the “Activity against T. b. rhodesiense (in words)” value was “devoid of antitrypanosomal activity”. Besides, the IC50 at 96 h in [2] (setting [8]) and in data set [2] (setting [9]) was over 36.5 µM throughout. For the same compound, the selectivity ratio at 96 h in data set [5] is over 24.
